From patent US12662491B2 (Redona Therapeutics, Inc., priority 2020, dated 2026)

Each compound was assayed against T1, Zcchc11 enzyme (Homo sapiens, UniProt Q5TAX3) (assay: TUTase assay (Zcchc11 assay, Lin28a-dependent polyuridylation of pre-let-7)). Settings: Lin28a-dependent Zcchc11 (Z11) TUTase assay; read-out: Potency Lin28a-dep Z11 IC50.
T1 construct: made in house; host or cells: HEK293 cells (Zcchc11); E. coli Rosetta II (LIN28A)
T1 sequence (Q5TAX3 212-1420): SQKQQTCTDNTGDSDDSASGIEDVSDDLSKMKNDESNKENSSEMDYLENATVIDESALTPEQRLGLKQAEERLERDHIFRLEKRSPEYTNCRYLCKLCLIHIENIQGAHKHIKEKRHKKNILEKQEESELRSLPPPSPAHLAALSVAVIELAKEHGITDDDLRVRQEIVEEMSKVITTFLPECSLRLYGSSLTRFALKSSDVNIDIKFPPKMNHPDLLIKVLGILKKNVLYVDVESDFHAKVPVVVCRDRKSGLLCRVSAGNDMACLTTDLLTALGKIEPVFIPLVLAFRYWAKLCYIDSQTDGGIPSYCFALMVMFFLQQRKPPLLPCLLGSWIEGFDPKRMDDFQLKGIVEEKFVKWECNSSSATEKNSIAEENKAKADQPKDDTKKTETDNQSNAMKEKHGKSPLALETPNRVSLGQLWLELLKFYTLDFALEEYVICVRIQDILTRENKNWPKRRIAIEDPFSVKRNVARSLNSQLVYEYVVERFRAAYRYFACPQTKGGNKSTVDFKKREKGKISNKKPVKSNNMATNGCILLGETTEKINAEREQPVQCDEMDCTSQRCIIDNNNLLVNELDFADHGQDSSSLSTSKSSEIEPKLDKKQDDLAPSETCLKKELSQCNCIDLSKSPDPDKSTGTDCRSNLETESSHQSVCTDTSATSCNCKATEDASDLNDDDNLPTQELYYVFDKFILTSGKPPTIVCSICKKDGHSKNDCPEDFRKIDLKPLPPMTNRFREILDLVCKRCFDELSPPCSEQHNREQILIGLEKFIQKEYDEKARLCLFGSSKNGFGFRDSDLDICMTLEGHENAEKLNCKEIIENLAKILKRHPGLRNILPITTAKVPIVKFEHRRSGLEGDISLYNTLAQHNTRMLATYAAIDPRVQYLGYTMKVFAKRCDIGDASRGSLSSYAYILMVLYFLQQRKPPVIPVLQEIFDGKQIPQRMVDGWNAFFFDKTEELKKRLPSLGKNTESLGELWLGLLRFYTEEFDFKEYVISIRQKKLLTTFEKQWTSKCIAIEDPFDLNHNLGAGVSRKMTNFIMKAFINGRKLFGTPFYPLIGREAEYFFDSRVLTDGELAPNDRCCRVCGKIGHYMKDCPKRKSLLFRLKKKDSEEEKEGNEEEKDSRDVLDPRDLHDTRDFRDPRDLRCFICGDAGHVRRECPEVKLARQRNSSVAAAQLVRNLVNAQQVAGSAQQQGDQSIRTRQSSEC
Format: biochemical
Summary of the method: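 HEK293-expressed human Zcchc11 (residues 212-1420, 0.2 nM) with 10 nM LIN28A and 2 nM 5′-fluorescein pre-let-7, preincubated 30 min at room temperature, pH 7.3. Started with 5 uM UTP; poly(U) tails quenched by 3′-rhodamine A20 probe, read kinetically. IC50 from early-rate four-parameter fit; no-UTP wells define 0%.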

IC50 [nM] | Compound
≤ 1000 | O=C(O)c1cn(Cc2ccccn2)c2cc(N3CCC[C@@H]3COc3ncccc3Cl)c(Cl)cc2c1=O [Example 576, (R)-6-chloro-7-(2-(((3-chloropyridin-2-yl)oxy)methyl)pyrrolidin-1-yl)-4-oxo-1-(pyridin-2-ylmethyl)-1,4-dihydroquinoline-3-carboxylic acid]
1000 to 10000 | CN(C)C1CN(c2ccc(-n3cc(C(=O)O)c(=O)c4cc(Cl)c(N5CCC[C@@H]5CCc5ccccn5)cc43)cn2)C1 [Example 578, (R)-6-chloro-1-(6-(3-(dimethylamino)azetidin-1-yl)pyridin-3-yl)-4-oxo-7-(2-(2-(pyridin-2-yl)ethyl)pyrrolidin-1-yl)-1,4-dihydroquinoline-3-carboxylic acid]
≤ 1000 | CN(C)C1CN(c2ccc(-n3cc(C(=O)O)c(=O)c4cc(Cl)c(N5CCC[C@@H]5COc5ccnn5C)cc43)cn2)C1 [Example 580, (R)-6-chloro-1-(6-(3-(dimethylamino)azetidin-1-yl)pyridin-3-yl)-7-(2-(((1-methyl-1H-pyrazol-5-yl)oxy)methyl)pyrrolidin-1-yl)-4-oxo-1,4-dihydroquinoline-3-carboxylic acid]
1000 to 10000 | CC(c1ccccc1)n1cc(C(=O)O)c(=O)c2cc(Cl)c(N3CCC[C@@H]3COc3ncccc3Cl)cc21 (stereo partly drawn) [Example 583, 6-chloro-7-((R)-2-(((3-chloropyridin-2-yl)oxy)methyl)pyrrolidin-1-yl)-4-oxo-1-(1-phentylethyl)-1,4-dihydroquinoline-3-carboxylic acid]
≤ 1000 | Cc1nc(N2CC(N(C)C)C2)ccc1-n1cc(C(=O)O)c(=O)c2cc(Cl)c(N3CCC[C@@H]3COc3ncccc3Cl)cc21 [Example 584, (R)-6-chloro-7-(2-(((3-chloropyridin-2-yl)oxy)methyl)pyrrolidin-1-yl)-1-(6-(3-(dimethylamino)azetidin-1-yl)-2-methylpyridin-3-yl)-4-oxo-1,4-dihydroquinoline-3-carboxylic acid]
≤ 1000 | CN(C)C1CN(c2ccc(-n3cc(C(=O)O)c(=O)c4cc(Cl)c(N5CCC[C@@H]5COc5ncco5)cc43)cn2)C1 [Example 587, (R)-6-chloro-1-(6-(3-(dimethylamino)azetidin-1-yl)pyridin-3-yl)-7-(2-((oxazol-2-yloxy)methyl)pyrrolidin-1-yl)-4-oxo-1,4-dihydroquinoline-3-carboxylic acid]
1000 to 10000 | O=C(O)c1cn(C2(c3ccccc3)CC2)c2cc(N3CCC[C@@H]3COc3ncccc3Cl)c(Cl)cc2c1=O [Example 588, (R)-6-chloro-7-(2-(((3-chloropyridin-2-yl)oxy)methyl)pyrrolidin-1-yl)-4-oxo-1-(1-phenylcyclo-propyl)-1,4-dihydroquinoline-3-carboxylic acid]
≤ 1000 | O=C(O)c1cn(-c2cnccn2)c2cc(N3C[C@H](F)C[C@@H]3COc3ncccc3Cl)c(Cl)cc2c1=O [Example 590, 6-chloro-7-((2R,4R)-2-(((3-chloropyridin-2-yl)oxy)methyl)-4-fluoropyrrolidin-1-yl)-4-oxo-1-(pyrazin-2-yl)-1,4-dihydroquinoline-3-carboxylic acid]
≤ 1000 | CN(C)C1CN(c2ccc(-n3cc(C(=O)O)c(=O)c4cc(Cl)c(N5CCC[C@@H]5CCOc5ccccn5)cc43)cn2)C1 [Example 591, (R)-6-chloro-1-(6-(3-(dimethylamino)azetidin-1-yl)pyridin-3-yl)-4-oxo-7-(2-(2-(pyridin-2-yloxy)ethyl)pyrrolidin-1-yl)-1,4-dihydroquinoline-3-carboxylic acid]
≤ 1000 | C#Cc1cc2c(=O)c(C(=O)O)cn(-c3ccc(N4CC(N(C)C)C4)nc3)c2cc1N1CCC[C@@H]1COc1ncccc1Cl [Example 592, (R)-7-(2-(((3-chloropyridin-2-yl)oxy)methyl)pyrrolidin-1-yl)-1-(6-(3-(dimethylamino)azetidin-1-yl)pyridin-3-yl)-6-ethynyl-4-oxo-1,4-dihydroquinoline-3-carboxylic acid]
≤ 1000 | CN(C)C1CN(c2ccc(-n3cc(C(=O)O)c(=O)c4cc(Cl)c(N5CC(c6ccccc6)C[C@@H]5COc5ncccc5Cl)cc43)cn2)C1 (stereo partly drawn) [Example 593, 6-chloro-7-((2R)-2-(((3-chloropyridin-2-yl)oxy)methyl)-4-phenyl-pyrrolidin-1-yl)-1-(6-(3-(dimethylamino)azetidin-1-yl)pyridin-3-yl)-4-oxo-1,4-dihydroquinoline-3-carboxylic acid]
1000 to 10000 | CN(C)C1CN(c2ccc(-n3cc(C(=O)O)c(=O)c4cc(Cl)c(N5CCC[C@@H]5COC5CCOC5)cc43)cn2)C1 (stereo partly drawn) [Example 594, 6-chloro-1-(6-(3-(dimethylamino)azetidin-1-yl)pyridin-3-yl)-4-oxo-7-((2R)-2-(((tetrahydro-furan-3-yl)oxy)methyl)pyrrolidin-1-yl)-1,4-dihydroquinoline-3-carboxylic acid]

The remaining lines, values behind:

Compound | IC50 [nM]
NC(=O)Cn1cc(C(=O)O)c(=O)c2cc(F)c(N3CCC[C@@H]3COc3ccccn3)cc21 [Example 574, (R)-1-(2-amino-2-oxoethyl)-6-fluoro-4-oxo-7-(2-((pyridin-2-yloxy)methyl)pyrrolidin-1-yl)-1,4-dihydroquinoline-3-carboxylic acid] | 1000 to 10000
CC(C)(O)c1ccc(-n2cc(C(=O)O)c(=O)c3cc(C#N)c(N4CCC[C@@H]4COc4ncccc4Cl)cc32)cn1 [Example 575, (R)-7-(2-(((3-chloropyridin-2-yl)oxy)methyl)pyrrolidin-1-yl)-6-cyano-1-(6-(2-hydroxypropan-2-yl)pyridin-3-yl)-4-oxo-1,4-dihydroquinoline-3-carboxylic acid] | ≤ 1000
O=C(O)c1cn(Cc2ccncc2)c2cc(N3CCC[C@@H]3COc3ncccc3Cl)c(Cl)cc2c1=O [Example 577, (R)-6-chloro-7-(2-(((3-chloropyridin-2-yl)oxy)methyl)pyrrolidin-1-yl)-4-oxo-1-(pyridin-4-ylmethyl)-1,4-dihydroquinoline-3-carboxylic acid] | 1000 to 10000
O=C(O)c1cn(Cc2cn[nH]c2)c2cc(N3CCC[C@@H]3COc3ncccc3Cl)c(Cl)cc2c1=O [Example 581, (R)-1-((1H-pyrazol-4-yl)methyl)-6-chloro-7-(2-(((3-chloropyridin-2-yl)oxy)methyl)pyrrolidin-1-yl)-4-oxo-1,4-dihydroquinoline-3-carboxylic acid] | 1000 to 10000
CN(C)CCn1cc(Cn2cc(C(=O)O)c(=O)c3cc(Cl)c(N4CCC[C@@H]4COc4ncccc4Cl)cc32)cn1 [Example 582, (R)-6-chloro-7-(2-(((3-chloropyridin-2-yl)oxy)methyl)pyrrolidin-1-yl)-1-((1-(2-(dimethylamino)ethyl)-1H-pyrazol-4-yl)methyl)-4-oxo-1,4-dihydroquinoline-3-carboxylic acid] | 1000 to 10000
Nc1ccc(Cn2cc(C(=O)O)c(=O)c3cc(Cl)c(N4CCC[C@@H]4COc4ncccc4Cl)cc32)cn1 [Example 585, (R)-1-((6-aminopyridin-3-yl)methyl)-6-chloro-7-(2-(((3-chloropyridin-2-yl)oxy)methyl)pyrrolidin-1-yl)-4-oxo-1,4-dihydroquinoline-3-carboxylic acid] | 1000 to 10000
Nc1cc(F)c(-n2cc(C(=O)O)c(=O)c3cc(Cl)c(N4CCC[C@@H]4COc4ncccc4Cl)cc32)cn1 [Example 586, (R)-1-(6-amino-4-fluoropyridin-3-yl)-6-chloro-7-(2-(((3-chloropyridin-2-yl)oxy)methyl)pyrrolidin-1-yl)-4-oxo-1,4-dihydroquinoline-3-carboxylic acid] | ≤ 1000
Nc1cc(Cn2cc(C(=O)O)c(=O)c3cc(Cl)c(N4CCC[C@@H]4COc4ncccc4Cl)cc32)ccn1 [Example 589, (R)-1-((2-aminopyridin-4-yl)methyl)-6-chloro-7-(2-(((3-chloropyridin-2-yl)oxy)methyl)pyrrolidin-1-yl)-4-oxo-1,4-dihydroquinoline-3-carboxylic acid] | 1000 to 10000
